Data: US7408025B2, “Lipopeptides as antibacterial agents” (priority 1999, dated 2008)

Test: Acute toxicity monitoring in non-inoculated mice
Assay type: in vivo, female CD-1 mice
Conditions: not inoculated; 10 mg/kg, s.c. × 2; acute toxicity group
Method: The test compound was dissolved in 10.0 ml of 50 mM phosphate buffer to give a solution of 1 mg/ml (pH=7.0). This solution was serially diluted with vehicle by 4-fold ([…]) to give 0.25, 0.063 and 0.016 mg/ml solutions. All the solutions were filtered with […] Nalgene syringe filter. Immediately after the bacterial inoculation, group 1 animals were subcutaneously (sc) injected with buffer (no test compound) and groups 2 to 5 were given test compound sc at 10.0, 2.5, 0.63, and 0.16 mg/kg, respectively. Group 6 animals received test compound sc at 10 mg/kg (or the highest therapeutic dose of a given compound) only for monitoring acute toxicity. These injections were repeated once at 4 hours after the inoculation for the respective groups. The injection volume at each time was 10 ml per kilogram of body weight. The results of the in vivo efficacy test are summarized in Table II, which provides a representative example of the results obtained for Compound 70. The 50% effective dose (ED50) is calculated on the basis of the number of mice surviving 7 days after inoculation. The ED50 was determined for other compounds of this invention in a similar manner.

## CCCCCCCCCC(=O)NC(Cc1c[nH]c2ccccc12)C(=O)NC(CC(N)=O)C(=O)NC(CC(=O)O)C(=O)NC1C(=O)NCC(=O)NC(CCCNC(=O)C2Cc3c([nH]c4ccccc34)CN2)C(=O)NC(CC(=O)O)C(=O)NC(C)C(=O)NC(CC(=O)O)C(=O)NCC(=O)NC(CO)C(=O)NC(C(C)CC(=O)O)C(=O)NC(CC(=O)c2ccccc2N)C(=O)OC1C (stereo not shown) [Compound 70]
  Survival (7 days): 5/5
